Data taken from ChEMBL document CHEMBL3832088, “DailyMed|setid=abbf31eb-9966-411a-9c5d-91025ff7a782 | ZARAH- drospirenone and ethinyl estradiol | Watson Pharma, Inc”.
Where “and” joins values, the source holds several entries; their conditions need not be identical. Identical values can stand only once.

What was measured:
[1] = (§1) Evaluation of pharmacokinetic parameters for Drosporine following multiple co-administration of 3 mg Drosporine tablets and […] ethinyl estradiol to 12 healthy female subjects.; format: ADME, organism-based; set-up: dose 3 mg, route oral; details: human, in vivo, dose 3 mg, dosed compound id 30, dosed compound name DROSPIRENONE, gender female, regimen Once daily, route oral, study dosing duration 21 days, tissue Serum
Homo sapiens = assay: as §1; format: ADME, organism-based; set-up: dose 3 mg, route oral; details: in vivo, po, dosed compound id 30, dosed compound name DROSPIRENONE, gender female, regimen Once daily, study dosing duration 21 days, tissue Serum
[2] = dose 3 mg, sampling time1 21 day

Tmax ([1]; sampling time1 1 day): 1.7 h | half-life ([1]; sampling time1 21 day): 32.5 h | Tmax (Homo sapiens; [2]): 1.8 h and 1.6 h | t1/2 (Homo sapiens; [2]): 31.4 h | AUC(0-24) (Homo sapiens; sampling time1 1 day): 288 ng·h/mL | Cmax (Homo sapiens; sampling time1 1 day): 36.9 ng/mL | AUC(0-24) (Homo sapiens; sampling time1 21 day): 957 ng.hr/mL [middle of 4 runs] | Cmax (Homo sapiens; sampling time1 21 day): 84.2 ng/mL [middle of 4 runs]
Structure (SMILES): C[C@]12CCC(=O)C=C1[C@@H]1C[C@@H]1[C@H]1[C@@H]3[C@@H]4C[C@@H]4[C@@]4(CCC(=O)O4)[C@@]3(C)CC[C@@H]12 [DROSPIRENONE]
